From patent US20250144131A1, “POLYSACCHARIDE COMPOUND WITH A DEFINED MOLECULAR STRUCTURE FOR THE TREATMENT OF PULMONARY FIBROSIS” (SHENZHEN YANDAI INVESTMENT CO., LTD, priority 2023, published 2025)
Marks after values point to notes of the source that are not given here.

What was measured:
H22 cells = assay: Necrosis and apoptosis of H22 cells (GLP-4 combined with cisplatin); format: cell-based; set-up: unit not given here; conditions: 48 h, GLP-4 2 mg/mL, cisplatin 5 μg/mL
Method: The culture medium was discarded, cells were washed with PBS and digested with 0.125% trypsin. After digestion, the reaction was stopped with medium, and cells were transferred to EP tubes for counting using a cell counter. […] 24 h later, once cells adhered, drugs were added. 48 h after drug administration, cells were digested with trypsin, washed with PBS, and recounted. The corresponding volume of staining solution was added based on cell count, then incubated for 30 min in an incubator. After incubation, cells were chilled to stop staining and maintain viability, followed by imaging using a confocal microscope.
Based on preliminary study results, the dosing concentration for Ganoderma lucidum polysaccharide GLP-4 was set at 2 mg/mL, and for cisplatin (DDP) at 5 μg/mL.

[1] = test system: H22 hepatoma solid tumors; assay: Antitumor effect in H22-bearing mice (tumor volume, relative tumor growth inhibition rate, tumor index, tumor growth inhibition rate); format: in vivo, C57 mice
Method: Longest and shortest diameters of tumors were measured every three days to calculate tumor volume, and mouse weights were recorded every three days. At the end of the experiment, tumors, spleens, and thymuses were harvested and weighed to calculate tumor, spleen, and thymus indices. […] Where TRTV is the relative tumor volume in the experimental group, and CRTV is the relative tumor volume in the model control group. Relative tumor volume (RTV)=Vt/V0, where Vt is the tumor volume on day t of dosing, and V0 is the tumor volume at the time of grouping. Evaluation criteria: […] Where T represents the average tumor weight in the treatment group, and C represents the average tumor weight in the model control group. Evaluation criteria: […]

bone marrow cells = test system: bone marrow cells; set-up: species or system C57 mice; conditions: mouse, in vivo, 130 mg/kg
Method: (§1) LLC cells in logarithmic growth phase at 1×10^7/mL were inoculated at 0.2 mL into the right axilla of 10 purchased normal male C57 mice. Tumor growth was monitored, and tumor-bearing mice were prepared. Once the tumor volume in tumor-bearing mice exceeded 200 mm^3, the tumor tissue was aseptically harvested to prepare a tissue cell suspension. This was mixed at a 1:1 (V:V) ratio with culture medium to create a tumor tissue homogenate. This homogenate was injected into the right axilla of 60 male C57 mice at 0.2 mL per mouse. When the tumor volume in these tumor-bearing mice exceeded 100 mm^3, mice with well-grown tumors without ulceration were selected and randomized into groups based on tumor volume as follows: model control group, cisplatin group (4 mg/kg), Kanglaite soft capsule group (1,404 mg/kg), cisplatin+Kanglaite soft capsule group (4+1,404 mg/kg), cisplatin+GLP-4 low-dose group (4+130 mg/kg), and cisplatin+GLP-4 high-dose group (4+1,170 mg/kg), with 8 mice per group. Additionally, 8 mice were selected as a normal control group. The cisplatin group received intraperitoneal injections of cisplatin, and the other groups were administered their respective drug solutions by gavage (20 mL/kg) or intraperitoneal injection (10 mL/kg), once daily for 27 consecutive days. After the last dose, blood was collected from the orbital plexus to test blood WBC, RBC, liver and kidney function indicators (ALT, AST, BUN, CRE), and CD3^+, CD4^+, and CD8^+ levels. Bone marrow smears were examined, and spleens, thymuses, and tumors were weighed. Histopathological examinations were conducted on the tumor, spleen, stomach, and kidneys.

[2] = Mortality and body weight of 4T1 breast tumor-bearing mice; format: in vivo, BALB/c mice
Method: A suspension of 4T1 breast cancer cells was injected subcutaneously into the left shoulder back of 55 healthy female BALB/c mice to create solid tumor models. When the mean tumor volume reached approximately 240 mm^3, the mice were randomized into groups based on tumor volume, and were administered the respective drugs or drug solvents via oral gavage or intraperitoneal injection over 25 consecutive days. Longest and shortest diameters of tumors were measured every three days to calculate tumor volume, and mouse weights were recorded every three days. At the end of the experiment, tumors, spleens, and thymuses were harvested and weighed to calculate tumor, spleen, and thymus indices.

[3] = Hematological and liver/kidney function tests (WBC, RBC, ALT, AST, BUN, CRE) in LLC-bearing mice
Method: as §1
Hematological tests: Blood samples for routine blood tests (WBC and RBC) and liver and kidney function tests (BUN and CRE) were collected from the orbital plexus after the last dose.

[4] = test system: CD4+ and CD8+ lymphocyte subtypes; assay: Blood CD3+/CD4+ and CD3+/CD8+ ratios by flow cytometry in orthotopic H22-bearing mice; format: in vivo, C57 mice; conditions: cisplatin 4 mg/kg, Kanglaite soft capsule 1404 mg/kg
Method: CD4^+ and CD8^+ content measurement: After the last dose, lymphocyte subtypes CD3^+/CD4^+ and CD3^+/CD8^+ in the blood were measured using flow cytometry.

For `N.N.[Cl][Pt][Cl]` [Cisplatin, cisplatin], the “Apoptosis rate, Mean ± SD” value (H22 cells) was 10.9 ± 1.6, the “Necrosis rate, Mean ± SD” value (H22 cells) was 33.7 ± 8.2 and the “Total mortality rate, Mean ± SD” value (H22 cells) was 44.7 ± 9.5. It also gave an Apoptosis rate (H22 cells; single value 1) of 11.3, a Necrosis rate (H22 cells; single value 1) of 27.3 and a Total mortality rate (H22 cells; single value 1) of 38.7. The Apoptosis rate (H22 cells; single value 2) was 8.8, the Necrosis rate (H22 cells; single value 2) was 28.6 and the Total mortality rate (H22 cells; single value 2) was 37.3. The Apoptosis rate (H22 cells; single value 3) was 12.9, the Necrosis rate (H22 cells; single value 3) was 45.4 and the Total mortality rate (H22 cells; single value 3) was 58.2. For the same compound, the “Relative tumor growth inhibition rate (compared to model control group)” value (from here on “Relative tumor growth inhibition rate”) ([1]; D3, cisplatin 3, GLP-4 low-dose 50 mg/kg) was 32.9%, the “Relative tumor growth inhibition rate” value ([1]; D6, cisplatin 3, GLP-4 low-dose 50 mg/kg) was 39.7% and the “Relative tumor growth inhibition rate” value ([1]; D9, cisplatin 3, GLP-4 low-dose 50 mg/kg, 50 mg/kg) was 66.5^+ %. The “Relative tumor growth inhibition rate” value ([1]; D9, cisplatin 3, GLP-4 low-dose 50 mg/kg, listed as cisplatin, 50 mg/kg) was 66.5%, the “Relative tumor growth inhibition rate” value ([1]; D12, cisplatin 3, GLP-4 low-dose 50 mg/kg, 50 mg/kg) was 70.6^+ % and the “Relative tumor growth inhibition rate” value ([1]; D12, cisplatin 3, GLP-4 low-dose 50 mg/kg, listed as cisplatin, 50 mg/kg) was 70.6%. The “Relative tumor growth inhibition rate” value ([1]; D15, cisplatin 3, GLP-4 low-dose 50 mg/kg, 50 mg/kg) was 69.1^+ %, the “Relative tumor growth inhibition rate” value ([1]; D15, cisplatin 3, GLP-4 low-dose 50 mg/kg, listed as cisplatin, 50 mg/kg) was 69.1% and the “Relative tumor growth inhibition rate” value ([1]; D18, cisplatin 3, GLP-4 low-dose 50 mg/kg, 50 mg/kg) was 81.3^+ %. The “Relative tumor growth inhibition rate” value ([1]; D18, cisplatin 3, GLP-4 low-dose 50 mg/kg, listed as cisplatin, 50 mg/kg) was 81.3%, the “Relative tumor growth inhibition rate” value ([1]; D21, cisplatin 3, GLP-4 low-dose 50 mg/kg, 50 mg/kg) was 83.9^+ % and the “Relative tumor growth inhibition rate” value ([1]; D21, cisplatin 3, GLP-4 low-dose 50 mg/kg, listed as cisplatin, 50 mg/kg) was 83.9%. For the same compound, the “Relative tumor growth inhibition rate” value ([1]; D24, cisplatin 3, GLP-4 low-dose 50 mg/kg, 50 mg/kg) was 85.3^+ %, the “Relative tumor growth inhibition rate” value ([1]; D24, cisplatin 3, GLP-4 low-dose 50 mg/kg, listed as cisplatin, 50 mg/kg) was 85.3% and the “Relative tumor growth inhibition rate” value ([1]; D27, cisplatin 3, GLP-4 low-dose 50 mg/kg, 50 mg/kg) was 84.3^+ %. The “Relative tumor growth inhibition rate” value ([1]; D27, cisplatin 3, GLP-4 low-dose 50 mg/kg, listed as cisplatin, 50 mg/kg) was 84.3%, the “Tumor growth inhibition rate (%) vs. the model control group” value ([1]; cisplatin group) was 88.7% and the Tumor index ([1]; cisplatin group) was 2.8 ± 2.1^+ %. For the same compound, the “Tumor growth inhibition rate compared to the model control group” value ([1]; tumor weight, cisplatin 3, GLP-4 low-dose 50 mg/kg) was 88.7%, the Lymphatic system (bone marrow cells) was 15.75 ± 3.44 and the Mononuclear cell system (bone marrow cells) was 2.88 ± 0.55. The Myeloid/erythroid ratio (bone marrow cells) was 3.68 ± 1.68, the Other cells (bone marrow cells) was 2.50 ± 2.01 and the Red cell system (bone marrow cells) was 22.75 ± 5.67. For the same compound, the Number of deaths ([2]; 10 per group, cisplatin 4 mg/kg) was 0, the Survival time ([2]; 25 days of dosing, cisplatin 4 mg/kg) was 25 ± 0 days and the Weight ([2]; D0, cisplatin 4 mg/kg) was 18.3 ± 1.3 g. The Weight ([2]; D3, cisplatin 4 mg/kg) was 17.7 ± 1.1 g, the Weight ([2]; D6, cisplatin 4 mg/kg) was 15.5 ± 1*^ g and the Weight ([2]; D9, cisplatin 4 mg/kg) was 15 ± 1.4 g. For the same compound, the Weight ([2]; D12, cisplatin 4 mg/kg) was 13.8 ± 0.9 g, the Weight ([2]; D15, cisplatin 4 mg/kg) was 15 ± 1.1 g and the Weight ([2]; D19, cisplatin 4 mg/kg) was 16.8 ± 1.4 g. For the same compound, the Weight ([2]; D22, cisplatin 4 mg/kg) was 18 ± 1.5 g, the Weight ([2]; D25, cisplatin 4 mg/kg) was 18.1 ± 1.6 g and the Mortality rate ([2]; cisplatin 4 mg/kg) was 0.0%. For the same compound, the ALT ([3]; LLC-bearing mice, blood after last dose, cisplatin 4, Kanglaite 1404, GLP-4 low-dose 130 mg/kg) was 58.25 U/L, the AST ([3]; mouse, in vivo, 130 mg/kg) was 393.25 U/L and the BUN ([3]; mouse, in vivo, 130 mg/kg) was 7.91 mmol/L. The CRE ([3]; mouse, in vivo, 130 mg/kg) was 20.45 µmol/L, the RBC ([3]; mouse, in vivo, 130 mg/kg) was 6.01 ± 10^12/L and the WBC ([3]; mouse, in vivo, 130 mg/kg) was 11.09 ± 10^9/L. For the same compound, the “CD3^+/CD4^+” value [4] was 4.26 ± 0.04 and the “CD3^+/CD8^+” value [4] was 4.21 ± 0.81.
